Earlier results on four molecules are cited in EP2561868A1 (Van Oosten, Anton Bernhard, priority 2011, dated 2013).

Test in data set [1]: not given
The source holds these as a separate data set.

Data set [2] concerns serum immunoglobulin. The note with it: patient Z.
For data set [3], the system named is bone marrow plasma cell. The note with it: patient Z.
Data set [4] concerns multiple myeloma and MGUS. To be noted: patients with multiple myeloma and MGUS.
Data set [5] has as its target P-glycoprotein (Homo sapiens, UniProt P08183).
For data set [6], the target named is human CYP3A4 (Homo sapiens, UniProt P08684).
Sequence of human CYP3A4 (P08684 whole entry): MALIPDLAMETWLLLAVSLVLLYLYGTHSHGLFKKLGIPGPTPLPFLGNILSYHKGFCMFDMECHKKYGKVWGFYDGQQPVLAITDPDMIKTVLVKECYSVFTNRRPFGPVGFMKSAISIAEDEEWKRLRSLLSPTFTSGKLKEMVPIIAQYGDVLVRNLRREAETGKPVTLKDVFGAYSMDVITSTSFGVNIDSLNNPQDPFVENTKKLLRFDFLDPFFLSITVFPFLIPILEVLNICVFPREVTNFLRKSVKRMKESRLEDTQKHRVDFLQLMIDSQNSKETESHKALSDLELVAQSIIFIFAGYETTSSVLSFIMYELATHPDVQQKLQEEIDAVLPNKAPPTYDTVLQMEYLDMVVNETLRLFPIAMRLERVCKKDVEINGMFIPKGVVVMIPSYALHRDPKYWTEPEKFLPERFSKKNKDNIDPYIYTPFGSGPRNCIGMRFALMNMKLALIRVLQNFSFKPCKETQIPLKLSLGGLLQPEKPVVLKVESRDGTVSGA
Setting [7] is: curcumin 8000 - 14,000 mg, no HCQ.

Entries after “also recorded” stand apart in the source; their conditions may differ.

Sequence of P-glycoprotein (P08183 whole entry): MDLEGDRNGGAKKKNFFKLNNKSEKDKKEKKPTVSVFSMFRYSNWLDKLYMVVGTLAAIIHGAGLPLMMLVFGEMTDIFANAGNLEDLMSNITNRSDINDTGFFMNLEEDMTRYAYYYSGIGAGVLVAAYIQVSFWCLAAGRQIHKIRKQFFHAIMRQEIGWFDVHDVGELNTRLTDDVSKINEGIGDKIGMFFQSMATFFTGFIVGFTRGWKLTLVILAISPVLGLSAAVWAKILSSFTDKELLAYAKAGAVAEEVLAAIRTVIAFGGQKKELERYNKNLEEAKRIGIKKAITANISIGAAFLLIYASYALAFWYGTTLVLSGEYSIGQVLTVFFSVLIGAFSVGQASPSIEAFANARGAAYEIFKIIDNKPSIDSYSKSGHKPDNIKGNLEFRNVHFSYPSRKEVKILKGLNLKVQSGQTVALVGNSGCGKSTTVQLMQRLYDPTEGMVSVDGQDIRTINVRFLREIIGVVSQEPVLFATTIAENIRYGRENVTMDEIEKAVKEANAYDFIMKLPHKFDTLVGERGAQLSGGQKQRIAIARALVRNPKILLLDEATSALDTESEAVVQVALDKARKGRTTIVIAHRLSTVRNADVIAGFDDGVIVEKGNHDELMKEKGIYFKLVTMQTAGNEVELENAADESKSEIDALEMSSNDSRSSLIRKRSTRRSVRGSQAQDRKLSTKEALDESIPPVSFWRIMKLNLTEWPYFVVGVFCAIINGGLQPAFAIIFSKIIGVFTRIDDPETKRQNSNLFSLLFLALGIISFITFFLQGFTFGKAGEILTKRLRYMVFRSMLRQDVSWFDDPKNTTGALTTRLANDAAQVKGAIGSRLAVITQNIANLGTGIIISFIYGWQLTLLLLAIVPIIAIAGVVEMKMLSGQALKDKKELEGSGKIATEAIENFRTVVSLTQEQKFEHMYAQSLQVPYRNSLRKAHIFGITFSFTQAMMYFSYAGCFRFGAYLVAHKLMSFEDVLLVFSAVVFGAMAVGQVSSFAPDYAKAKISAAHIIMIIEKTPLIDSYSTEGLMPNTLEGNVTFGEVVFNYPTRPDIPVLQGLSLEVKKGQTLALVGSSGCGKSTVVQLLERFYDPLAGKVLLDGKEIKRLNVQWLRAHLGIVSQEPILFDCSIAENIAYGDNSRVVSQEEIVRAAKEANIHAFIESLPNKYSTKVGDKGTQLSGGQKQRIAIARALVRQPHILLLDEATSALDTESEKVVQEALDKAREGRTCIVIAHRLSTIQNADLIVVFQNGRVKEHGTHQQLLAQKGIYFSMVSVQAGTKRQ

As to `CCN(CCO)CCCC(C)Nc1ccnc2cc(Cl)ccc12.O=S(=O)(O)O` (centres unmarked) [Hydroxychloroquine, 2-[[4-[(7-Chloro-4-quinolyl)amino]pentyl]ethylamino] ethanol sulfate (1:1)], the risk of toxicity (after 5 to 7 years of use, or a cumulative dose of 1000 g) was ~1%. Besides, where the note is “non-obese person (Marmor M et al., 2002)”, the dose considered safe was 6.5 mg/kg/day. Moreover, the soluble in water entry in data set [1] is recorded as “at least 20%”.

With `O=C1CC[C@@]2(O)[C@H]3Cc4ccc(O)c5c4[C@@]2(CCN3CC2CC2)[C@H]1O5` [LDN], in data set [2] (serum, 12/26/07, LDN, diet), the IgG is recorded as 30.0 g/L and the M-IgG is on record as 20.5 g/L.

As for `COc1cc(/C=C/C(=O)CC(=O)/C=C/c2ccc(O)c(OC)c2)ccc1O` [curcumin], in data set [3] (8000 mg to 14,000 mg daily, June 27 to December 26, 2007), the clinical benefit result is recorded as “without any clear benefit”. In data set [3] (setting [7]), the “BMPC values / progression” value was “did not prevent progression or cause a downward evolution of the BMPC nor the m-spike; also recorded: No clear benefit”. In data set [4], the objective responses result was “no objective responses”. Further, the “m-spike / M-IgG serum concentration, response to treatment” value in data set [2] (setting [7]) is on record as “did not react to treatment”.

With `O=C(/C=C/C=C/c1ccc2c(c1)OCO2)N1CCCCC1` [piperine], in data set [5], the “inhibition of P-glycoprotein” value is “inhibit”. For the same molecule, in data set [6], the “inhibition of human CYP3A4” value is listed as “inhibit”.
